According to paper PMC5890784, “Total chemical synthesis of glycocin F and analogues: S-glycosylation confers improved antimicrobial activity” (Chemical Science, 2018):
Bridges are numbered along the chain shown (N, C = ends). The star is where a group is joined. βGlcNAc = CC(=O)N[C@@H]1[C@@H](O)[C@H](O)[C@@H](CO)O[C@H]1*

System: Lactobacillus plantarum ATCC 8014
Assay type: cell-based
Conditions: for IC50: liquid culture in MRS broth, 96-well plate, triplicate, start OD 0.05, 30 °C, 12-15 h, absorbance 600 nm, error = maximum variance across triplicates
Procedure: To evaluate the antibacterial activity of synthetic glycocin F (1b), [^27D-His]-GccF (1a) and glyco-mutants 10 and 11, the IC50 values against Lactobacillus plantarum ATCC 8014 were measured using a liquid culture assay. Synthetic GccF (1b) was used as the positive control (Table 1).
The glycopeptides were assayed for activity against Lactobacillus plantarum strain 8014, using a 96-well plate reader. Serial dilutions of the compound to be tested were prepared in MRS broth (Merck) and was added, in triplicate, to a 96-well plate containing an equal volume of L. plantarum 8014 at optical density 0.05. Additional positive controls (cells with no treatment) and negative controls (MRS media with no cells) were included, also in triplicate. Cells were grown in a Multiskan GO plate reader (Thermo Scientific) for 12-15 h, at 30 °C, and absorbance measured at 600 nm every 15 min. The growth of cells in each peptide concentration was modelled against the internal positive control, and the percentage inhibition derived at each time point as the difference between the optical density of the positive control and the optical density of cells within a given peptide concentration. Taking the maximum point from plots of percentage inhibition versus time for each peptide concentration allowed a polynom ial fit to be applied, and the concentration required to reach 50% inhibition derived.
Statistical error was taken as the maximum variance across the triplicates of each concentration in a […]
Figure 44. Th e results from testin g the bacterially-isola ted GccF, synthetic GccF (1b) and analo gues 1a, 10, and 11, plott ed as perc entage in hibit ion of Lact oba cillus plantarum ATCC 8014 gro wth vs concentra tion of the […]
(1 picture or pasted object on this page, not shown here)

[1] = from IC50 values, relative to IC50 1.13 nM

| Substance | IC50 [nM] | further results |
| --- | --- | --- |
| H-KPAWCWYTLAMCGAGYDS(βGlcNAc)GTCDYMYSHCFGIKHHSSGSSSYHC(βGlcNAc)-OH (disulfide 5-28, 12-21) [Compound 1b, glycocin F] | 1.13 ± 0.2 | – |
| H-KPAWCWYTLAMCGAGYDS(βGlcNAc)GTCDYMYSHCFGIKHHSSGSSSYHS(βGlcNAc)-OH (disulfide 5-28, 12-21) [Compound 10] | – | decrease in activity compared to native glycocin F (fold) [1]: approximately 10 fold |
| H-KPAWCWYTLAMCGAGYDS(βGlcNAc)GTCDYMYSHCFGIKHHSSGSSSYHC(βGlcNAc)-OH (disulfide 5-28, 12-21) [Native, glycocin F] | 2 ± 0.2 | – |
| H-KPAWCWYTLAMCGAGYDC(βGlcNAc)GTCDYMYSHCFGIKHHSSGSSSYHC(βGlcNAc)-OH (disulfide 5-28, 12-21) [Compound 11] | – | increase in activity relative to the native glycopeptide (fold) [1]: approximately 2 fold |
